This note sets out measurements from patent US20250122183A1 (Pfizer Inc., priority 2023, published 2025).

The Ki is the equilibrium dissociation constant of an inhibitor or competing ligand from its target.

Where two headings read alike, the source gives them in different places.

What all share (format): biochemical
Assay [1] deals with KAT7+JADE1+EAF6+ING5 4 protein complex (Homo sapiens (Human), UniProt O95251). The experiment in a line: KAT7 JADE1 assay (SAMDI-MS acetylation of H3 1-21 peptide). The settings on record: replicate number in parentheses.
Assay [2] has as its target KAT6A Full length enzyme (Homo sapiens (Human), UniProt Q92794). As to the kind of experiment: KAT6A assay (SAMDI-MS acetylation of H3 1-21 peptide). The settings on record: replicate number in parentheses.
The target in assay [3] is KAT7+BRPF1+EAF6+ING5 4 protein complex (Homo sapiens (Human), UniProt O95251). As to the kind of experiment: KAT7 BRPF1 assay (SAMDI-MS acetylation of H3 1-21 peptide). The settings on record: Morrison equation fit; replicate number in parentheses.
Assay [4] has as its target KAT8 Full length enzyme (Homo sapiens (Human), UniProt Q9H7Z6). As to the kind of experiment: KAT8 assay (SAMDI-MS acetylation of H3 1-21 peptide). The settings on record: replicate number in parentheses.
Assay [5] has as its target KAT7+BRPF2+EAF6+ING5 4 protein complex (Homo sapiens (Human), UniProt O95251). As to the kind of experiment: KAT7 BRPF2 assay (SAMDI-MS acetylation of H3 1-21 peptide). The settings on record: replicate number in parentheses.
For assay [6], the target named is KAT5 Full length enzyme (Homo sapiens (Human), UniProt Q92993). As to the kind of experiment: KAT5 assay (SAMDI-MS acetylation of H4 1-21 peptide). The settings on record: replicate number in parentheses.
Sequence of KAT5 Full length enzyme (Q92993 whole entry): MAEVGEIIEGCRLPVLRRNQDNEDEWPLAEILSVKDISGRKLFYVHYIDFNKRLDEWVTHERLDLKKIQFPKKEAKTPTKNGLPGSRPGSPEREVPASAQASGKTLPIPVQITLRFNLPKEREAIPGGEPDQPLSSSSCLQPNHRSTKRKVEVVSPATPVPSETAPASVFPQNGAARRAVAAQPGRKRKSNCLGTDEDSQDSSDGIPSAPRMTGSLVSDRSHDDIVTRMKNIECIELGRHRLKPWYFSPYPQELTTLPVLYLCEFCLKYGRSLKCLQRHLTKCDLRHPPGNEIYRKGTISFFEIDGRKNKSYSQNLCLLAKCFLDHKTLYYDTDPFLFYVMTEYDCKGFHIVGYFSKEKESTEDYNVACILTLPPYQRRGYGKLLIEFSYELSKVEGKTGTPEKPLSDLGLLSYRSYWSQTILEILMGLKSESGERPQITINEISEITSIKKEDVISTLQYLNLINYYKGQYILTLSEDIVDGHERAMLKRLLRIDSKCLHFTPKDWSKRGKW
Setting [7] is: Morrison equation fit, read-out: KAT7 JADE1 Ki (nM) (replicate number).
Setting [8] is: Morrison equation fit, read-out: KAT6A Ki (nM) (replicate number).
The mark [9] stands for this setting: Morrison equation fit, read-out: KAT8 Ki (nM) (replicate number).
Where [10] appears, read: Morrison equation fit, read-out: KAT7 BRPF2 Ki (nM) (replicate number).
The mark [11] stands for this setting: Morrison equation fit, read-out: KAT5 Ki (nM) (replicate number).
The mark [12] stands for this setting: read-out: KAT7 JADE1 Ki (nM) (replicate).
The mark [13] stands for this setting: read-out: KAT6A Ki (nM) (replicate).
Where [14] appears, read: read-out: KAT8 Ki (nM) (replicate).
[15] abbreviates: read-out: KAT7 BRPF2 Ki (nM) (replicate).
Where [16] appears, read: read-out: KAT5 Ki (nM) (replicate).

Sequence of KAT6A Full length enzyme (Q92794 other isoform, or with tags, fused parts or gaps): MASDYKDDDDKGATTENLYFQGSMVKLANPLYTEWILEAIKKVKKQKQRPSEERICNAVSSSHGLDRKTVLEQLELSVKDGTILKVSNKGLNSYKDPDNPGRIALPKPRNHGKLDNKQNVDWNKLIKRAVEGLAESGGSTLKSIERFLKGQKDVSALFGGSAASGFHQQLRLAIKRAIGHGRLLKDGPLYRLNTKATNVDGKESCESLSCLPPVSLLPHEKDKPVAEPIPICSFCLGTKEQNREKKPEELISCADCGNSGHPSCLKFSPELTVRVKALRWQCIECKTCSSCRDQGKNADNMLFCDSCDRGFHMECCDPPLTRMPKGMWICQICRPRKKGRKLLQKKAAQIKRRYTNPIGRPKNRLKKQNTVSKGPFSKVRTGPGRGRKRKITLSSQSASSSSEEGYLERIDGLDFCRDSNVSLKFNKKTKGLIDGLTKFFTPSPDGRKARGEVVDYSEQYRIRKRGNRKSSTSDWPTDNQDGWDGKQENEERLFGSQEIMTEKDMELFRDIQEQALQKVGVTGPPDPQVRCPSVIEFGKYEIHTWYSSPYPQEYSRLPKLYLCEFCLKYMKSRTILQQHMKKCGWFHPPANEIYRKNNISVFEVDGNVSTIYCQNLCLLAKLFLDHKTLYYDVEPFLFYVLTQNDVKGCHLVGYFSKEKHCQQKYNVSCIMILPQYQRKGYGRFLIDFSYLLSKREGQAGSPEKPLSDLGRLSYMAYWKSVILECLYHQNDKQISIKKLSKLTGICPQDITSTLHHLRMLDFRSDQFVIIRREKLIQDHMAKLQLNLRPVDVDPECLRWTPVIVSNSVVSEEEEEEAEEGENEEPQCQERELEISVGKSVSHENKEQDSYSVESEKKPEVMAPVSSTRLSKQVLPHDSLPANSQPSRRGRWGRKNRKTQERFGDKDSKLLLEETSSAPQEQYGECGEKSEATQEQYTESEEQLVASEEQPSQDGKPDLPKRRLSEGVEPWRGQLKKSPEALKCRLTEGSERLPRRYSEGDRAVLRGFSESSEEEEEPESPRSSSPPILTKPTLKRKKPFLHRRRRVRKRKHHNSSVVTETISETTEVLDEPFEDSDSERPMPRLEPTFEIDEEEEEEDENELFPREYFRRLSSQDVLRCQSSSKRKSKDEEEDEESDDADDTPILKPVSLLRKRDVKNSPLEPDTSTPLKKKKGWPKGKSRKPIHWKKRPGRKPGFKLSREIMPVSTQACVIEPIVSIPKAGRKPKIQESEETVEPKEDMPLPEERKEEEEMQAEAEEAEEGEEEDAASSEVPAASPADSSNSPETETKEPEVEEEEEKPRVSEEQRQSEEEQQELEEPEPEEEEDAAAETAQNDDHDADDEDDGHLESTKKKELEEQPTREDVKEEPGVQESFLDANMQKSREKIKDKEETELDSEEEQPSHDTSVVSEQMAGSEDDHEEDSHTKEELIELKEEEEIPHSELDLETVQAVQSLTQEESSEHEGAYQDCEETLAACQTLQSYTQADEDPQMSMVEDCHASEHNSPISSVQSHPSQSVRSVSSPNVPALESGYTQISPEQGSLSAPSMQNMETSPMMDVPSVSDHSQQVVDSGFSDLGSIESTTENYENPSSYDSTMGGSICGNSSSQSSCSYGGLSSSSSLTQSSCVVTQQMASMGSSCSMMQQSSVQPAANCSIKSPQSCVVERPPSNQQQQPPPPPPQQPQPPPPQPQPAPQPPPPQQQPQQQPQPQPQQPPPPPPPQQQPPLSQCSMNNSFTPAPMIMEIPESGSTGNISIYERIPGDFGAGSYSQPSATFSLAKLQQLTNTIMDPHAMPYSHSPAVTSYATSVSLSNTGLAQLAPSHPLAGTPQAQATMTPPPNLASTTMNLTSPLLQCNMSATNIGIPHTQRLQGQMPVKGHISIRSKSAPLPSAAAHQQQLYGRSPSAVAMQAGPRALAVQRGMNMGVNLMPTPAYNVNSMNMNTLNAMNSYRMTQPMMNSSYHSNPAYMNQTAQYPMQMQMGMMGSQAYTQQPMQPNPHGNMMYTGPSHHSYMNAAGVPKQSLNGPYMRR
Sequence of KAT8 Full length enzyme (Q9H7Z6 whole entry): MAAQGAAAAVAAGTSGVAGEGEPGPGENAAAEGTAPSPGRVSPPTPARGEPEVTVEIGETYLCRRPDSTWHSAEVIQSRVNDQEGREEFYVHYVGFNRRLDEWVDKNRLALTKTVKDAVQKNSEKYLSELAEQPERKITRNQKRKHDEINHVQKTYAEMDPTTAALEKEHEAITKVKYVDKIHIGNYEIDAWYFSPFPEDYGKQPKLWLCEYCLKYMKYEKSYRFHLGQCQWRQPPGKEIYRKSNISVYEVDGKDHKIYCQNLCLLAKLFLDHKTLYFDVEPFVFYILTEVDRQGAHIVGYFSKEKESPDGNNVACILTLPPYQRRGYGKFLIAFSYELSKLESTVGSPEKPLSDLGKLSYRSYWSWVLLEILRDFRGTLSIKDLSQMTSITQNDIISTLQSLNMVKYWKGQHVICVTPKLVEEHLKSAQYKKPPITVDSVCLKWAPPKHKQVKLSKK

`COc1cc2c(NS(=O)(=O)c3c(OC)cc(C4CCCCN4C)cc3OC)noc2cc1Nc1cc(C2CC2)n[nH]1` (racemic) [Example 155, N-{6-[(3-cyclopropyl-1 H-pyrazol-5-yl)amino]-5-methoxy-1,2-benzoxazol-3-yl}-2,6-dimethoxy-4-(1-methylpiperidin-2-yl)benzene-1-sulfonamide]: the inhibition constant (Ki) in assay [1] (setting [7]) was 24.3 nM; in assay [2] (setting [8]) it was 2.9 nM; in assay [3], 14.9 nM.

As for `COc1cc2c(NS(=O)(=O)c3c(OC)cc(C4COC(C)(C)CO4)cc3OC)noc2cc1Nc1cc(C2CC2)n[nH]1` (single isomer, unassigned) [Example 186, N-{6-[(3-cyclopropyl-1 H-pyrazol-5-yl)amino]-5-methoxy-1,2-benzoxazol-3-yl}-4-(5,5-dimethyl-1,4-dioxan-2-yl)-2,6-dimethoxybenzene-1-sulfonamide], the inhibitory constant (Ki) in assay [1] (setting [7]) came to 3.6 nM; in assay [2] (setting [8]), 0.8 nM; in assay [4] (setting [9]) it was 590 nM; in assay [5] (setting [10]), 1.5 nM; in assay [6] (setting [11]), 5.8 nM.

As to `CCOc1cccc(OC)c1S(=O)(=O)Nc1noc2cc(Nc3cc[nH]n3)c(OC)cc12` [Example 30, 2-ethoxy-6-methoxy-N-{5-methoxy-6-[(1H-pyrazol-3-yl)amino]-1,2-benzoxazol-3-yl}benzene-1-sulfonamide], the Ki was 248 nM in assay [1] (setting [7]); 0.5 nM in assay [2] (setting [8]); 676 nM in assay [4] (setting [9]); 26 nM in assay [5] (setting [10]); 605 nM in assay [6] (setting [11]).

On to `COc1cc2c(NS(=O)(=O)c3c(OC)cccc3OC3CCC3)noc2cc1Nc1cc[nH]n1` [Example 33, 2-(cyclobutyloxy)-6-methoxy-N-{5-methoxy-6-[(1H-pyrazol-3-yl)amino]-1,2-benzoxazol-3-yl}benzene-1-sulfonamide], for which the Ki in assay [1] (setting [7]) came out at 142 nM; in assay [4] (setting [9]), 733 nM; in assay [6] (setting [11]), 988 nM; in assay [3] it was 15.4 nM.

For `COc1cc2c(NS(=O)(=O)c3c(OC)cccc3OC)noc2cc1Nc1c(C#N)c(C)nn1C` [Example 46, N-{6-[(4-cyano-1,3-dimethyl-1H-pyrazol-5-yl)amino]-5-methoxy-1,2-benzoxazol-3-yl}-2,6-dimethoxybenzene-1-sulfonamide], the Ki in assay [1] (setting [7]) is greater than 9770 nM; in assay [2] (setting [8]), greater than 377 nM; in assay [3] it was greater than 16100 nM.

For `COc1cc2c(NS(=O)(=O)c3c(OC)cccc3OC)noc2cc1Nc1cc(C)nn1CCO` [Example 59, N-(6-{[1-(2-hydroxyethyl)-3-methyl-1H-pyrazol-5-yl]amino}-5-methoxy-1,2-benzoxazol-3-yl)-2,6-dimethoxybenzene-1-sulfonamide], the Ki in assay [1] (setting [7]) is greater than 2870 nM; in assay [3] it was 580 nM.

In the case of `CCOc1cccc(OC)c1S(=O)(=O)Nc1noc2cc(Nc3cc(C(C)C)[nH]n3)c(OC)cc12` [Example 83, 2-ethoxy-6-methoxy-N-(5-methoxy-6-{[5-(propan-2-yl)-1H-pyrazol-3-yl]amino}-1,2-benzoxazol-3-yl)benzene-1-sulfonamide], the inhibition constant (Ki) is 60.1 nM in assay [1] (setting [7]); 2.9 nM in assay [2] (setting [8]); 10400 nM in assay [4] (setting [9]); 7.8 nM in assay [5] (setting [10]); 502 nM in assay [6] (setting [11]).

On to `CCc1cc(Nc2cc3onc(NS(=O)(=O)c4ccc(C(=O)NCCCCCN)cc4OC)c3cc2OC)[nH]n1` [Example 96, N-(5-aminopentyl)-4-({6-[(3-ethyl-1H-pyrazol-5-yl)amino]-5-methoxy-1,2-benzoxazol-3-yl}sulfamoyl)-3-methoxybenzamide], for which the inhibition constant (Ki) was 103 nM in assay [1] (setting [7]); 7.3 nM in assay [2] (setting [8]); greater than 13000 nM in assay [4] (setting [9]); 13.6 nM in assay [5] (setting [10]); 2050 nM in assay [6] (setting [11]).

Take `CCOc1cccc(OC)c1S(=O)(=O)Nc1noc2cc(Nc3cc(C)[nH]n3)c(OC)cc12` [Example 99, 2-ethoxy-6-methoxy-N-{5-methoxy-6-[(5-methyl-1H-pyrazol-3-yl)amino]-1,2-benzoxazol-3-yl}benzene-1-sulfonamide]: the Ki turned out to be 82.6 nM in assay [1] (setting [7]); 0.5 nM in assay [2] (setting [8]); 4840 nM in assay [4] (setting [9]); 5.5 nM in assay [5] (setting [10]); 388 nM in assay [6] (setting [11]).

Consider `CCc1cc(Nc2cc3onc(NS(=O)(=O)c4ccc(C(=O)NCCCCCNC(=O)c5ccc(-c6nnc(C)nn6)cc5)cc4OC)c3cc2OC)[nH]n1` [Example 138, 4-({6-[(3-Ethyl-1 H-pyrazol-5-yl)amino]-5-methoxy-1,2-benzoxazol-3-yl}sulfamoyl)-3-methoxy-N-{5-[4-(6-methyl-1,2,4,5-tetrazin-3-yl)benzamido]pentyl}benzamide], for which the Ki in assay [1] (setting [7]) was 40.6 nM; in assay [2] (setting [8]), 1.2 nM; in assay [4] (setting [9]) it was greater than 13000 nM; in assay [5] (setting [10]), 5.6 nM; in assay [6] (setting [11]), 195 nM.

For the compound `COc1cc2c(NS(=O)(=O)c3c(OC)cc([C@H]4CCCN4C)cc3OC)noc2cc1Nc1cc(C2CC2)n[nH]1` [Example 188, N-{6-[(3-cyclopropyl-1 H-pyrazol-5-yl)amino]-5-methoxy-1,2-benzoxazol-3-yl}-2,6-dimethoxy-4-[(2R)-1-methylpyrrolidin-2-yl]benzene-1-sulfonamide], the inhibition constant (Ki) in assay [1] (setting [7]) worked out at 8.4 nM; in assay [2] (setting [8]), 2.5 nM; in assay [4] (setting [9]), 3690 nM; in assay [5] (setting [10]), 2.9 nM; in assay [6] (setting [11]), 140 nM.

`COc1cc2c(NS(=O)(=O)c3c(OC)cc(-c4ncc(C)cn4)cc3OC)noc2cc1Nc1cc(C2CC2)n[nH]1` [Example 213, N-{6-[(3-cyclopropyl-1H-pyrazol-5-yl)amino]-5-methoxy-1,2-benzoxazol-3-yl}-2,6-dimethoxy-4-(5-methylpyrimidin-2-yl)benzene-1-sulfonamide]: the Ki in assay [1] (setting [7]) was found to be 3.9 nM; in assay [2] (setting [8]), 0.5 nM; in assay [4] (setting [9]), 1570 nM; in assay [3] it was 1.7 nM.

As for `COc1cc2c(NS(=O)(=O)c3c(OC)cc(N4CC[C@@H](F)C4)cc3OC)noc2cc1Nc1cc(C2CC2)n[nH]1` [Example 249, N-{6-[(3-cyclopropyl-1H-pyrazol-5-yl)amino]-5-methoxy-1,2-benzoxazol-3-yl}-4-[(3R)-3-fluoropyrrolidin-1-yl]-2,6-dimethoxybenzene-1-sulfonamide], the Ki in assay [1] (setting [12]) stood at 1.7 nM; in assay [2] (setting [13]), 0.3 nM; in assay [4] (setting [14]) it was 104 nM; in assay [5] (setting [15]), 0.3 nM; in assay [6] (setting [16]), 8.7 nM.

Regarding `COc1cc2c(NS(=O)(=O)c3c(OC)cc(N4CCN(C)CC4)cc3OC)noc2cc1Nc1cc(C2CC2)n[nH]1` [Example 251, N-{6-[(3-cyclopropyl-1H-pyrazol-5-yl)amino]-5-methoxy-1,2-benzoxazol-3-yl}-2,6-dimethoxy-4-(4-methylpiperazin-1-yl)benzene-1-sulfonamide], the inhibitory constant (Ki) is 6.2 nM in assay [1] (setting [12]); 1 nM in assay [2] (setting [13]); 1150 nM in assay [4] (setting [14]); 2.1 nM in assay [5] (setting [15]); 67 nM in assay [6] (setting [16]).

As to `COc1cc2c(NS(=O)(=O)c3c(OC)cc(N4CCN(C)C(=O)C4)cc3OC)noc2cc1Nc1cc(C2CC2)n[nH]1` [Example 254, N-{6-[(3-cyclopropyl-1H-pyrazol-5-yl)amino]-5-methoxy-1,2-benzoxazol-3-yl}-2,6-dimethoxy-4-(4-methyl-3-oxopiperazin-1-yl)benzene-1-sulfonamide], the inhibition constant Ki in assay [1] (setting [12]) was found to be 6.6 nM; in assay [2] (setting [13]) it was 0.7 nM; in assay [4] (setting [14]) it was 1260 nM; in assay [5] (setting [15]) it was 1.2 nM; in assay [6] (setting [16]) it was 54.5 nM.
